Measured values from publication PMC8765320, “Identification of a Proteasome-Targeting Arylsulfonamide with Potential for the Treatment of Chagas’ Disease” (Antimicrobial Agents and Chemotherapy, 2022).
Where two headings read alike, the source gives them in different places.

Columns and labels:
[1] = system: ubiquitinated proteins in T. cruzi epimastigotes; assay: Accumulation of ubiquitinated proteins in treated epimastigotes (LC-MS/MS); format: cell-based, Trypanosoma cruzi; conditions: epimastigotes pretreated 8 h at 3× EC50 (methods: 8× EC50); one biological replicate
Experimental: In cells where the function of the proteasome has been compromised, there is a concomitant build-up of ubiquitinated proteins earmarked for degradation. […] Control cultures were treated for the same period of time in the presence of dimethyl sulfoxide (DMSO). Enrichment of ubiquitinated proteins was achieved by immunoprecipitation using magnetic beads conjugated to an antibody specific for the remnant of ubiquitinated lysines following digestion with trypsin and/or LysC. We used liquid chromatography-tandem mass spectrometry (LC-MS/MS) to calculate the ubiquitination ratio of each sample by dividing the reporter intensity of ubiquitinated proteins by the reporter intensity of total protein (see Table S8). As expected, the accumulation of ubiquitinylated proteins was highest in epimastigotes treated with bortezomib (2.7-fold higher than in the DMSO-treated control), which is known to inhibit all three catalytic activities of the proteasome (Fig. 3). […] Similarly, ubiquitinated proteins accumulated to levels 1.9-fold higher in compound 1-treated parasites compared to those recovered from DMSO-treated control cells.
Controls were incubated in the presence of diluent (DMSO). Cells were harvested by centrifugation (1,912 × g, 15 min, 4°C) and washed with ice-cold PBS (1,912 × g, 5 min, 4°C); finally, the cell pellets were resuspended in 1.5 ml of ice-cold lysis buffer (1 mM EDTA, 1 mM DTT, 100 μM TLCK, and 1× Roche EDTA-free cOmplete protease inhibitor cocktail in 50 mM potassium phosphate buffer [pH 7.4]). Cell suspensions were submitted to three freeze-thaw cycles in a dry ice/ethanol bath to biologically inactivate the parasites and then lysed using a OneShot cell disruptor (Constant Systems) at 30 kpsi.
Cell lysates were centrifuged (100,000 × g, 20 min, 4°C), supernatants were collected, and the protein concentrations were determined by using a standard Bio-Rad protein assay. […]

T. cruzi epimastigotes = assay: T. cruzi epimastigote drug sensitivity assay (resazurin); format: cell-based, Trypanosoma cruzi; conditions: for EC50: Trypanosoma cruzi; for susceptibility of CRISPR-edited epimastigotes: β4 F24L and I29M, at all of the concentrations tested
Experimental: To examine the effects of test compounds on the growth of T. cruzi epimastigotes, mid-log-phase parasites were seeded into 96-well plates at a cell density of 5 × 10^5 cells ml^−1. Cells were exposed to test compounds over a range of concentrations (2-fold serial dilutions). Cells were incubated for 4 days, and then 20 μl of 2.5 mM resazurin was added to each well, before measuring the fluorescence (excitation, 528 nm; emission, 590 nm), following a further 24 h of incubation. […] In this equation, [I] represents the inhibitor concentration, and m is the slope factor. Experiments were repeated at least two times, and the data are presented as means plus the standard deviations.

T. cruzi = conditions: cited from earlier work
[2] = system: T. cruzi amastigotes within Vero cells; assay: Drug sensitivity assay against T. cruzi-infected Vero cells (intracellular amastigotes); format: cell-based, Trypanosoma cruzi; conditions: for EC50: Trypanosoma cruzi, Vero
Experimental: The clonal Leishmania donovani cell line LdBOB (derived from MHOM/SD/62/1S-CL2D) was grown as either promastigotes or axenic amastigotes in media specific for each developmental stage, as previously described ([32]). T. cruzi epimastigotes from the Silvio strain (MHOM/BR/78/Silvio; clone X10/7A [33]) were grown at 28°C in RTH/FBS (RPMI 1640 medium supplemented with Trypticase, hemin, HEPES, and 10% heat-inactivated fetal calf serum (FCS) [Fisher Scientific]) ([34]). Bloodstream form T. brucei “single marker” S427 (T7RPOL TETR NEO) were cultured in the presence of G418 (15 μg ml^−1) at 37°C in HMI9-T media in the presence of 5% CO2. HepG2 cells (ECACC 85011430) were obtained from European Collection of Authenticated Cell Culture (ECACC). Cells were maintained in full growth medium (minimal essential medium [MEM] with GlutaMAX (Thermo Fisher), supplemented with 1% MEM nonessential amino acids (Sigma) and 10% heat-inactivated FBS and cultured at 37°C in the presence of 5% CO2. Cells were passaged twice weekly by detaching adherent cells with 0.05% trypsin/EDTA (Sigma) and diluted into fresh media. Cells were never grown beyond 80% confluence. Vero cells (African green monkey kidney cells; ECCAC 84113001) were maintained at 37°C, 5% CO2 in Dulbecco modified Eagle medium (DMEM; Lonza) supplemented with 10% FCS and subcultured every 2 days. T. cruzi metacyclic trypomastigotes were obtained from late-log-phase epimastigote cultures (initial inoculum, 10^6 ml^−1) after ca. 7 to 10 days at 28°C in RTH/FBS. Trypomastigote-rich cultures were incubated with Vero cells overnight at 37°C and 5% CO2 in DMEM/10% FCS. The following day, extracellular parasites were removed by washing the Vero cell monolayer three times. Infected monolayers were maintained at 37°C and in 5% CO2, DMEM/10% FCS was replaced every 48 h until the trypomastigotes reemerged from the Vero cells ([9]).
Drug sensitivity assays against T. cruzi-infected Vero cells were carried out as previously described ([37]); however, in this instance, assays were carried out in 96-well plates. Data were processed using GRAFIT (Erithacus software) and fitted to a two-parameter equation, as described above.

Chagas' disease = conditions: cited from earlier work
[3] = read-out: Mean EC50 ± SD, cell line RES II (compound 1-resistant, β5 D225N)
[4] = read-out: Mean EC50 ± SD, cell line RES IV (compound 1-resistant, no proteasome mutation)
[5] = in Vero cells, cell line RES 1, read-out: EC50 values
[6] = in Vero cells, cell line RES 5, read-out: EC50 values
[7] = in Vero cells, cell line Wild-type, read-out: EC50 values
[8] = read-out: EC50 values, in Vero cells, cell line β4 F24L/I29M
[9] = cell line Wild type, read-out: Mean EC50 ± SD
[10] = read-out: Mean EC50 ± SD, cell line RES I (compound 1-resistant, β5 D225N)
[11] = read-out: Mean EC50 ± SD, cell line RES III (compound 1-resistant, β5 D225N)
[12] = read-out: Mean EC50 ± SD, cell line RES V (compound 1-resistant, β4 I27T)
[13] = read-out: Mean EC50 ± SD, cell line Res I-β5 OE (β5 WT overexpressed in RES I)
[14] = read-out: Mean EC50 ± SD, cell line β4 F24L/I29M (CRISPR-edited)
[15] = read-out: Mean EC50 ± SD, cell line β5 D225N-OE (overexpressing mutated β5)

Row | SMILES | accumulation of ubiquitinated proteins versus DMSO-treated control [1] | EC50 (T. cruzi epimastigotes; [3]) | EC50 (T. cruzi epimastigotes; [4]) | fold change versus the WT (T. cruzi epimastigotes; cell line RES I) | fold change versus the WT (T. cruzi epimastigotes; cell line RES II) | fold change versus the WT (T. cruzi epimastigotes; cell line RES III) | fold change versus the WT (T. cruzi epimastigotes; cell line RES IV) | fold change versus the WT (T. cruzi epimastigotes; cell line RES V) | fold change versus the WT (T. cruzi epimastigotes; cell line Res I-β5 OE) | fold change versus the WT (T. cruzi epimastigotes; cell line β4 F24L/I29M) | fold change versus the WT (T. cruzi epimastigotes; cell line β5 D225N-OE) | EC50 [2, 5] | EC50 [2, 6] | EC50 [2, 7] | EC50 [2, 8] | EC50 (T. cruzi epimastigotes; [9]) | EC50 (T. cruzi epimastigotes; [10]) | EC50 (T. cruzi epimastigotes; [11]) | EC50 (T. cruzi epimastigotes; [12]) | EC50 (T. cruzi epimastigotes; [13]) | also measured
1 | CC(C)C[C@H](NC(=O)[C@H](Cc1ccccc1)NC(=O)c1cnccn1)B(O)O [Bortezomib, bortezomib] | 2.7 fold | 0.3 ± 0.01 µM | 0.6 ± 0.05 µM | 1 fold | 1 fold | 1 fold | 2.5 fold | 1 fold | 1 fold | 1 fold | 1 fold | – | – | – | – | – | – | – | – | – | EC50 (T. cruzi epimastigotes; read-out: Mean EC50 ± SD, cell line Wild type): 0.2 ± 0.004 µM; cross-resistance against RES I to V clones (T. cruzi epimastigotes; compound 1-resistant clones RES I to V): no evidence of cross-resistance
2 | Cc1nc(C)c(C(=O)Nc2ccc(F)c(-c3nc4ncc(-c5ccccn5)cn4n3)c2)o1 [GNF6702] | 1.45 fold | > 10 µM | > 10 µM | – | – | – | – | – | – | – | – | 16 ± 3 µM | 3 ± 0.4 µM | 0.2 ± 0.03 µM | > 1.5 µM | 0.3 ± 0.02 µM | > 10 µM | > 10 µM | 10 ± 0.2 µM | 2 ± 0.3 µM | treated mice with no detectable parasites in blood, colon, or heart tissue (T. cruzi; 10 mg kg−1 twice daily, after 4 weeks of immunosuppression): All but one of the eight; efficacy in a mouse model of infection (T. cruzi; dosed twice daily at 10 mg kg−1): matched the efficacy of benznidazole; EC50 ([2]; in Vero cells, cell line β5 OE, read-out: EC50 values): 0.2 ± 0.1 µM; EC50 ([2]; read-out: EC50 values, in Vero cells, cell line β5 D225N-OE, (*) one biological replicate): > 5 µM; EC50 (T. cruzi epimastigotes; [14]): > 10 µM; EC50 (T. cruzi epimastigotes; [15]): > 10 µM; susceptibility of CRISPR-edited epimastigotes (T. cruzi epimastigotes): refractory
3 | CC1CS(=O)(=O)CCN1/N=C/c1ccc([N+](=O)[O-])o1 (stereo not drawn) [nifurtimox] | – | – | – | – | – | – | – | – | – | – | – | – | – | – | – | – | – | – | – | – | individuals cured (Chagas' disease; in vivo): up to 70%
4 | CSc1ccc(OCc2ncc([N+](=O)[O-])n2C)cc1 [Fexinidazole, fexinidazole] | – | – | – | – | – | – | – | – | – | – | – | 8 ± 1 µM | 4 ± 0.7 µM | 4 ± 0.8 µM | 6 ± 0.6 µM | – | – | – | – | – | EC50 ([2]; in Vero cells, cell line ME OE, (*) one biological replicate, read-out: EC50 values): 5 ± 1 µM; EC50 ([2]; in Vero cells, cell line β5 OE rescue R1, (*) one biological replicate, read-out: EC50 values): 4 ± 0.6 µM; EC50 ([2]; read-out: EC50 values, in Vero cells, cell line β5 OE): 3 ± 0.3 µM; fold change versus WT ([2]; in Vero cells, cell line ME OE): 1 fold; fold change versus WT ([2]; in Vero cells, cell line RES 1): 2 fold; fold change versus WT ([2]; in Vero cells, cell line RES 5): 1 fold; fold change versus WT ([2]; in Vero cells, cell line Wild-type): 1 fold; fold change versus WT ([2]; in Vero cells, cell line β4 F24L/I29M): 2 fold; fold change versus WT ([2]; in Vero cells, cell line β5 D225N-OE): 1 fold; fold change versus WT ([2]; in Vero cells, cell line β5 OE): 1 fold; fold change versus WT ([2]; in Vero cells, cell line β5 OE rescue R1): 1 fold
5 | O=C(Cn1ccnc1[N+](=O)[O-])NCc1ccccc1 [benznidazole] | – | – | – | – | – | – | – | – | – | – | – | – | – | – | – | – | – | – | – | – | outcome of modified treatment regimen in mouse models of infection (T. cruzi; higher doses given in pulses over prolonged periods): sterile parasitological cure; interruption or discontinuation of treatment due to severe toxic side effects (Chagas' disease): ≤ 30 % of cases; individuals cured (Chagas' disease; prolonged treatment during the acute stage): up to 70%
6 | O=C(Nc1ccc(F)c(-c2cn3nc(-c4ccccc4)cnc3n2)c1)N1CCCC1 [Compound 2] | – | 5 ± 0.2 µM | 0.1 ± 0.01 µM | 100 fold | 125 fold | 125 fold | 2.5 fold | 20 fold | 6.5 fold | > 250 fold | 58 fold | – | – | – | – | 0.04 ± 0.001 µM | 4 ± 0.08 µM | 5 ± 0.4 µM | 0.8 ± 0.03 µM | 0.3 ± 0.01 µM | EC50 (T. cruzi epimastigotes; [14]): > 10 µM; EC50 (T. cruzi epimastigotes; [15]): 2 ± 0.1 µM; susceptibility of CRISPR-edited epimastigotes (T. cruzi epimastigotes): refractory
